Test results reported in patent US20250257060A1, “OXADIAZOLE COMPOUND, PHARMACEUTICAL COMPOSITION COMPRISING SAME, AND USE THEREOF” (SUZHOU GENHOUSE BIO CO., LTD., priority 2022, published 2025).
Where two headings read alike, the source gives them in different places. Blank lines part the entries; values can stand above or below the molecule they belong to.

Key:
[1] = biological target: HDAC6 (Homo sapiens (Human), UniProt Q9UBN7); test: HDAC6 enzymatic activity assay; format: biochemical
Experimental: The inhibitory activity of the compounds of the present application against HDAC6 was evaluated by an enzymatic activity assay. HDAC6 (Abcam), test compounds, and a 20 µM substrate solution (Ac-GAK(Ac)-AMC) were each added to a 384-well plate, and the plate was incubated at 37° C. for 30 min. […] and […] were added, and the plate was incubated at room temperature for 15 min. […] IC50 was obtained by fitting using GraphPadPrism 7.0 software.

[2] = Brain-to-blood drug concentration ratio of mice; format: in vivo; settings: mouse, 5 mg/kg PO, 2 h; for Kp at 2 h: brain/plasma
Experimental: On the day of administration, mice were weighed for actual body weight and the administration volume was calculated. In each group of 9 mice, the compound was administered by single intravenous (IV) injection or intragastric (PO) administration. Whole blood samples were collected via the orbit at prescribed time points. After blood sample collection, the samples were immediately transferred to labeled commercial sample tubes containing K2-EDTA (0.85-1.15 mg), followed by centrifugation (3200×g, 4° C., 10 min) and plasma collection. The plasma was transferred to a pre-cooled centrifuge tube, frozen in dry ice, and stored in an ultra-low temperature freezer at −60° C. or lower until the LC-MS/MS analysis. 20 μL of a plasma sample or brain tissue homogenate was taken and 80 μL of an internal standard solution (50 ng/mL solution of propafenone in acetonitrile) was added. The plate was sealed with a film sealer at 165° C., shaken on a micro oscillator (maximum vibration speed) for 10 min, and centrifuged at 4000 rpm for 20 min using a low-speed benchtop centrifuge, 10 μL of supernatant was transferred and 90 μL of acetonitrile was added. The mixture was vortexed and mixed well, and then the plate was sealed with the film sealer at 165° C. After the mixture was vortexed and mixed well, 1 μL of supernatant was taken for LC-MS/MS analysis. Plasma drug concentration data for the compounds were processed in a non-compartmental model using WinNonlin Version 6.3 (Pharsight, Mountain View, CA) pharmacokinetic software. The relevant pharmacokinetic parameters were calculated by a linear logarithmic trapezoid method.
Data processing: brain-to-blood drug concentration ratio of mice at the same time point=drug concentration in brain tissue/drug concentration in plasma

[3] = system: acetylation level of α-tubulin in HCT116 cells; test: Assay on acetylation level of α-tubulin, HCT116 cells; format: cell-based; settings: Homo sapiens, HCT-116, 6 h
Experimental: A375/HCT116/HCC827 cells at a logarithmic growth phase were taken, digested with a […] (trypsin), centrifuged, counted, and plated in a 96-well plate at an appropriate cell density (30,000 cells/well) at 100 µL/well, and an appropriate amount of PBS was added around the plate for water sealing. The next day, the cells were treated with the compounds at different concentrations (starting at 100 μM, 5-fold dilution, 9 concentration gradients). After 6 h, the medium was pipetted out and the cells were washed twice with 100 μL of PBST. The cells were then immobilized in 4% paraformaldehyde, and the plate was incubated at room temperature for 20 min. The stationary liquid was discarded and the cells were washed with PBST. 150 μL of special blocking buffer (containing 1% Triton-100) was added to each well for blocking at room temperature for 2 h, and the plate was washed with PBS to remove excess blocking buffer. α-tubulin (DM1A) mouse mAb and acetyl-α-tubulin (Lys40) (D20G3) XP rabbit mAb were diluted at a 1:2000 ratio with a blocking buffer containing 0.033% Triton-100. The dilutions were added to the 96-well plate and the plate was incubated overnight at 4° C. Meanwhile, a blank control group was set. The next day, the plate was washed twice with PBST. Secondary anti-mouse IgG (H+L) (DyLight™ 680 conjugate) and anti-rabbit IgG (H+L) (DyLight™ 800 conjugate) were diluted at a 1:2000 ratio with a blocking buffer containing 0.033% Triton-100. The dilutions were added to a 96-well plate and the plate was incubated at room temperature for 2 h. The plate was washed twice with PBST and once with PBS. Fluorescence signals at 700 nm and 800 nm were detected with a Li-COR Odyssey two-color near-infrared laser imager.

[4] = Pharmacokinetic test in mice (IV and PO); format: in vivo, BALB/c mice; settings: for Cmax / AUC(0-inf) / AUC(0-t) / MRT inf / Vd / Tmax: BALB/c, mouse, plasma; for MRT inf: read-out: MRT(0-∞); for Vd: read-out: Vz
Experimental: In this example, the pharmacokinetic behavior of the compounds after intravenous injection (IV) and intragastric (PO) administration in BALB/c mice was tested.
On the day of administration, mice were weighed for actual body weight and the administration volume was calculated. Each compound was tested in two groups with 3 mice in each group, one group administered by single intravenous injection and the other group of mice by single intragastric administration. Whole blood samples were collected via the orbit at prescribed time points (0.25 h, 0.5 h, 1 h, 2 h, 4 h, 8 h, and 24 h after administration). After blood sample collection, the samples were immediately transferred to labeled commercial sample tubes containing K2-EDTA (0.85-1.15 mg), followed by centrifugation (3200×g, 4° C., 10 min) and plasma collection. The plasma was transferred to a pre-cooled centrifuge tube, frozen in dry ice, and stored in an ultra-low temperature freezer at −60° C. or lower until the LC-MS/MS analysis.
Plasma concentrations were determined by a LC-MS/MS method. Plasma drug concentration data for compounds 1 and 2 were processed in a non-compartmental model using WinNonlin Version 6.3 (Pharsight, Mountain View, CA) pharmacokinetic software. The relevant pharmacokinetic parameters were calculated by a linear logarithmic trapezoid method.

[5] = Phase I metabolic stability in rat liver microsomes (RLMs); format: in vitro ADME, Sprague-Dawley rats; settings: RLM
Experimental: (§1) Phase I metabolic stability of the test compounds in liver microsomes of CD-1 mice (MLMs), Sprague-Dawley rats (RLMs), beagle dogs (DLMs), cynomolgus monkeys (CLMs), and humans (HLMs) was evaluated.
(§2) The animal and human liver microsomes used in the test system were purchased from Xenotech, Corning, or other qualified suppliers and stored in a freezer at a temperature below −60° C. prior to use.
(§3) The test samples and control compounds were separately incubated with animal and human liver microsomes at 37±1° C. for a period of incubation time up to 60 min. The samples were removed at the indicated time points, and the reaction was stopped with acetonitrile or other organic solvents containing an internal standard. After centrifugation, the resulting supernatants were assayed by liquid chromatography-tandem mass spectrometry (LC-MS/MS).
(§4) 73.21 g of dipotassium hydrogenphosphate trihydrate and 10.78 g of potassium dihydrogenphosphate were dissolved in 4000 mL of ultrapure water. The solution was adjusted to pH 7.40±0.10 with 10% phosphoric acid or 1 M potassium hydroxide to make a final concentration of 100 mM.
(§5) The test sample powder was prepared into a stock solution at a certain concentration with DMSO or other organic solvents, which was then further diluted with a proper organic solvent.
(§6) Microsomes of each species were diluted into a 2× working solution with a 100 mM potassium phosphate buffer. The final concentration of the microsomes in the reaction system was 0.5 mg/mL.
(§7) An appropriate amount of nicotinamide adenine dinucleotide phosphate (NADP) and isocitric acid (ISO) powder was weighed out, dissolved in a magnesium chloride solution, and shaken and mixed well. An appropriate amount of isocitrate dehydrogenase (IDH) was added, and the mixture was mixed well by gently turning upside down. The final concentrations in the reaction system were: 1 mM NADP, 1 mM magnesium chloride, 6 mM ISO, and 1 unit/mL IDH.
(§8) Incubation was performed in a 96-well plate. Eight incubation plates were prepared and designated T0, T5, T15, T30, T45, T60, Blank60, and NCF60, respectively. The first 6 plates corresponded to reaction time points of 0, 5, 15, 30, 45, and 60 min, respectively. No test sample or control compound was added to the Blank60 plate, and samples were taken after 60 min of incubation. In the NCF60 plate, incubation was performed for 60 min using the potassium phosphate buffer instead of the NADPH regeneration system solution. Three replicates were made for samples in all conditions.
(§9) The microsomes and the test sample or control compound were mixed, and then the incubation plates Blank60, T5, T15, T30, T45, and T60 except for TO and NCF60 were placed in a 37° C. water bath for pre-incubation for about 10 min. In the incubation plate TO, a stop solution was first added, followed by addition of the NADPH regeneration system working solution, and 98 μL of the potassium phosphate buffer was added to each sample well of the incubation plate NCF60 to initiate the reaction. After the pre-incubations of the incubation plates Blank60, T5, T15, T30, T45, and T60 were completed, 98 μL of the NADPH regeneration system working solution was added to each sample well to initiate the reaction. The reaction temperature was 37±1° C., the final volume of the reaction was 200 μL, and the reaction system included 0.5 mg/mL microsomes, […], 1 mM NADP, 6 mM ISO, and 1 unit/mL IDH.
(§10) At 5 min, 15 min, 30 min, 45 min, and 60 min, a cold stop solution containing an internal standard was added to the reaction plate to stop the reaction.
(§11) All the reaction plates after the reaction was stopped were shaken well and centrifuged at 3220×g at 4° C. for 20 min. After the supernatant was diluted according to a certain proportion, LC-MS/MS analysis was performed.
(§12) Sample analysis was performed by the liquid chromatography-tandem mass spectrometry (LC-MS/MS) method without standard curves and quality control samples. […]

[6] = Phase I metabolic stability in human liver microsomes (HLMs); format: in vitro ADME, humans; settings: HLM
Experimental: as §1, §2, §3, §4, §5, §6, §7, §8, §9, §10, §11, §12

[7] = Phase I metabolic stability in mouse liver microsomes (MLMs); format: in vitro ADME, CD-1 mice; settings: MLM
Experimental: as §1, §2, §3, §4, §5, §6, §7, §8, §9, §10, §11, §12

[8] = brain, read-out: Brain drug concentration
[9] = plasma, read-out: Blood drug concentration
[10] = buffer instead of NADPH regeneration system, 60 min
[11] = Sprague-Dawley, rat, liver microsomes, pH 7.4
[12] = human, liver microsomes, pH 7.4
[13] = CD-1, mouse, liver microsomes, pH 7.4

HDAC6, sequence (Q9UBN7 whole entry): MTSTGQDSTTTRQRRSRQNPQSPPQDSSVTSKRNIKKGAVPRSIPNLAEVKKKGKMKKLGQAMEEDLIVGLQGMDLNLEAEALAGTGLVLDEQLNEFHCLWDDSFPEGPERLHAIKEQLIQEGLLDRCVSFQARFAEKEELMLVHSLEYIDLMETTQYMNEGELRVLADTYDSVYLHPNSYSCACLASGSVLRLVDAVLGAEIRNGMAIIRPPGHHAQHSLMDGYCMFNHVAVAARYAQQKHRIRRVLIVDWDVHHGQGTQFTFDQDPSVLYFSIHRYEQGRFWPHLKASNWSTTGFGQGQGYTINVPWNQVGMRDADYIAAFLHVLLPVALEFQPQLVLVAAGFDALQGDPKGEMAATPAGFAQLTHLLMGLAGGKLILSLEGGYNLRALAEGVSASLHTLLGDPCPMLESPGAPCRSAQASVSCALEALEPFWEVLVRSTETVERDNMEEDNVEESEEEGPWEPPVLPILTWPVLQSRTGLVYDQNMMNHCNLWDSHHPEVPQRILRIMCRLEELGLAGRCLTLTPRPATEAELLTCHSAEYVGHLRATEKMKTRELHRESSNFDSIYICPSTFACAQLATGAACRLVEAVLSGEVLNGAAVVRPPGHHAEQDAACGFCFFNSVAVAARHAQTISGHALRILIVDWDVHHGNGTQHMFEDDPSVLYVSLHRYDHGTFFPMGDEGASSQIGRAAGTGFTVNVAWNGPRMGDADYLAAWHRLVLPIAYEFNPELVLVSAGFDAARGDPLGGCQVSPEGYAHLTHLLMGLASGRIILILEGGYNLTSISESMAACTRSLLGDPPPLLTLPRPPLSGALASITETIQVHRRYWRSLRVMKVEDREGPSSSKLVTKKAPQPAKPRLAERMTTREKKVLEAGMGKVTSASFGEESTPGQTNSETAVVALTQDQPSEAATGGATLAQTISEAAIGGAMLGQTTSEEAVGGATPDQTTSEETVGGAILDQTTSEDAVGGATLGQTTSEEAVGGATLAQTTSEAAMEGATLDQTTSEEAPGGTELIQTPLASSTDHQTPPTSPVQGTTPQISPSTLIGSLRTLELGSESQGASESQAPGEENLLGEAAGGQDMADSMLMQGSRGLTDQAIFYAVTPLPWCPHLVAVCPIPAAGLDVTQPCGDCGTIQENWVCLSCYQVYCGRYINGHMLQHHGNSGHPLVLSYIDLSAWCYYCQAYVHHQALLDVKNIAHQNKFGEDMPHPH

IC50 [1]: 154 nM
concentration at 2 h [2, 8]: 190 ng/mL
Kp at 2 h [2]: 0.08
concentration at 2 h [2, 9]: 2260 ng/mL
Compound: O=S(=O)(N[C@@H]1CCCC[C@H]1N1Cc2ccc(-c3nnc(C(F)F)o3)cc2S1(=O)=O)C1CC1 [Compound 4]

EC50 [3]: 467 nM
Compound: O=C(N[C@@H]1CCOC[C@H]1N1Cc2ccc(-c3nnc(C(F)F)o3)cc2S1(=O)=O)C1(C(F)(F)F)CC1 [Compound 65]

EC50 [3]: 322 nM
Compound: O=C(N[C@@H]1CCOC[C@H]1N1Cc2ccc(-c3nnc(C(F)F)o3)cc2S1(=O)=O)C(F)(F)C(F)(F)F [Compound 66]

Cmax ([4]; po, 10 mg/kg, read-out: C0/Cmax): 12 µM
AUC(0-inf) ([4]; mice, IV 2 mg/kg): 8.78 µM·h
AUC(0-t) ([4]; mice, IV 2 mg/kg): 8.61 µM·h
Cmax ([4]; mice, IV 2 mg/kg (C0)): 5.27 µM
MRT inf ([4]; mice, IV 2 mg/kg): 2.06 h
Vd ([4]; mice, IV 2 mg/kg): 1.01 L/kg
AUC(0-inf) ([4]; mice, PO 10 mg/kg): 63.7 µM·h
AUC(0-t) ([4]; mice, PO 10 mg/kg): 50.5 µM·h
Tmax ([4]; mice, PO 10 mg/kg): 0.5 h
MRT inf ([4]; mice, PO 10 mg/kg): 4.57 h
CLz ([4]; mice, IV 2 mg/kg): 7.82 mL/min/kg
t½z ([4]; mice, IV 2 mg/kg): 1.493 h
F ([4]; mice, PO 10 mg/kg): 117.4%
t½z ([4]; mice, PO 10 mg/kg): 3.323 h
Remaining rate (NCF = 60 min) [5, 10]: 88.49%
Remaining rate (T = 60 min) ([5]; with NADPH, 60 min): 36.99%
CLint scaled at 1 µM [5, 11]: 58.6 mL/min/kg
half-life at 1 M [5, 11]: 0.706 h
Remaining rate (NCF = 60 min) [6, 10]: 84.68%
Remaining rate (T = 60 min) ([6]; with NADPH, 60 min): 82.70%
CLint scaled at 1 µM [6, 12]: 6.43 mL/min/kg
half-life at 1 M [6, 12]: 4.51 h
CLint scaled at 1 µM [7, 13]: 41.4 mL/min/kg
half-life at 1 M [7, 13]: 2.2 h
Remaining rate (NCF = 60 min) [7, 10]: 84.39%
Remaining rate (T = 60 min) ([7]; with NADPH, 60 min): 72.27%
Compound: O=S1(=O)c2cc(-c3nnc(C(F)F)o3)ccc2CN1C(c1ccccn1)[C@H](O)c1ccccn1 (stereo partly drawn) [Compound 83]

IC50 [1]: 133 nM
Cmax ([4]; po, 5 mg/kg, read-out: C0/Cmax): 3.41 µM
AUC(0-inf) ([4]; mice, IV 1 mg/kg): 1.08 µM·h
AUC(0-t) ([4]; mice, IV 1 mg/kg): 1.07 µM·h
Cmax ([4]; mice, IV 1 mg/kg (C0)): 2.11 µM
MRT inf ([4]; mice, IV 1 mg/kg): 0.6 h
Vd ([4]; mice, IV 1 mg/kg): 1.9 L/kg
AUC(0-inf) ([4]; mice, PO 5 mg/kg): 4.57 µM·h
AUC(0-t) ([4]; mice, PO 5 mg/kg): 4.56 µM·h
Tmax ([4]; mice, PO 5 mg/kg): 0.5 h
MRT inf ([4]; mice, PO 5 mg/kg): 1.2 h
CLz ([4]; mice, IV 1 mg/kg): 33.3 mL/min/kg
t½z ([4]; mice, IV 1 mg/kg): 0.7 h
F ([4]; mice, PO 5 mg/kg): 84.4%
t½z ([4]; mice, PO 5 mg/kg): 0.7 h
concentration at 2 h [2, 8]: 27 ng/mL
Kp at 2 h [2]: 0.11
concentration at 2 h [2, 9]: 252 ng/mL
Compound: CN(C)C(=O)N[C@@H]1CCCC[C@H]1N1Cc2ccc(-c3nnc(C(F)F)o3)cc2S1(=O)=O [Compound 93]

IC50 [1]: 325 nM
Compound: O=C(NCC1CC1)N[C@@H]1CCCC[C@H]1N1Cc2ccc(-c3nnc(C(F)F)o3)cc2S1(=O)=O [Compound 110]

IC50 [1]: 141 nM
Compound: O=C(N[C@@H]1CCCC[C@H]1N1Cc2ccc(-c3nnc(C(F)F)o3)cc2S1(=O)=O)N1CCCC1 [Compound 112]

IC50 [1]: 173 nM
Compound: O=S1(=O)c2cc(-c3nnc(C(F)F)o3)ccc2CN1[C@@H]1CCCC[C@H]1NS(=O)(=O)C(F)(F)F [Compound 116]

IC50 [1]: 449 nM
Compound: O=S1(=O)c2cc(-c3nnc(C(F)F)o3)ccc2CN1c1ccccc1-c1ccccn1 [Compound 117]
